Ends that are not written are not given here.
Key:
ATIII/heparin complexes = assay: Thrombin inactivation by ATIII/heparin complexes (Chromostrate anti-thrombin assay); assay type: biochemical; conditions: 1.0 to 100 μg/mL
Protocol: BPI functional domain peptides BPI.2, BPI.3, BPI.4, BPI.5, BPI.6, and BPI.8, along with rBPI23 as a positive control, were assayed for their effect on thrombin inactivation by ATIII/heparin complexes according to the method of Example 3 in copending and co-assigned U.S. patent application Ser. No. 08/093,202, filed Jul. 15, 1993, incorporated by reference. Specifically, a Chromostrate™ anti-thrombin assay kit (Organon Teknika Corp., Durham, N.C.) was used to examine the inhibition of purified thrombin by preformed ATIII/heparin complexes in plasma.
Briefly, the assay was performed in 96 well microtiter plates in triplicate with a final volume per well of 200 μL. Varying concentrations of the BPI functional domain peptides ranging from 1.0 μg/mL to 100 μg/mL were assayed to determine their effect on thrombin inhibition in the presence of pre-formed ATIII/heparin complexes. The order of addition of assay components was as follows: 1) a dilution series of rBPI23 or BPI functional domain peptides or thaumatin as a control protein, with final concentrations of 100, 50, 25, 10 and 1 μg/well, diluted in PBS in a final volume of 50 μL; 2) 50 μL plasma diluted 1:100 in a buffer supplied by the manufacturer, 3) 50 μl thrombin at 1 nKat/mL in a buffer supplied by the manufacturer, and 4) 50 μL chromogenic substrate at a concentration of 1 μmol/mL in water. The reaction was allowed to proceed for 10 minutes at 37° C. and stopped with the addition of 50 μL 0.1M citric acid. The colorimetric reaction was quantitated on a microplate reader as described in Example 3.

E. coli J5 (rough) = assay: Broth antibacterial assay, E. coli J5; assay type: cell-based
Protocol: In additional experiments, broth antibacterial assays were conducted to further determine the bactericidal activity of certain of the BPI peptides. Specifically, either E. coli J5 (rough) or E. coli 0111:B4 (smooth) bacteria were selected from single colonies on agar plates and used to inoculate 5 mL of Mueller Hinton broth and incubated overnight at 37° C. with shaking. The overnight culture was diluted (˜1:50) into 5 mL fresh broth and incubated at 37° C. to log phase (˜3 hours). Bacteria were pelleted for 5 minutes at 3000 rpm (1500×g). Bacterial pellets were resuspended in 5 mL PBS and diluted to 2×10^6 cells/mL in the Mueller Hinton broth (wherein 1 OD570 unit equals 1.25×10^9 CFU/mL). The BPI functional domain peptides to be tested were diluted to 200 μg/mL in broth and serially diluted 2-fold in 96 well culture plates (100 μL volume). All items were at 2-fold final concentration and experiments were conducted in triplicate. Bacteria were added at 100 μL/well and the plates were incubated on a shaker at 37° C. for a 20 hour period. The plates were then read on an ELISA plate multiple reader at 590 nm. One of the triplicate wells from each peptide concentration was selected for colony forming unit (CFU) determination. A 30 μL aliquot was added to 270 μL of PBS and further ten-fold serial dilutions were performed. Then a 50 μL aliquot was plated on tryptic soy agar and incubated overnight. Colonies were counted and final bacterial concentrations determined. The results of these assays are depicted in FIGS. 9e (for E. coli J5) and 9f (for E. coli 0111:B4).

[1] = system: L-form of S. aureus ATCC 19640; assay: Activity against L-forms of gram-positive bacteria; assay type: cell-based
Protocol: The bactericidal capacity of BPI peptides provided by the invention was also tested against Gram-positive bacteria (See Table VIII A). […] In addition, peptides were tested for their activity against L-forms of gram-positive bacteria, such as the L-form of S. aureus ATCC 19640.

[2] = system: Klebsiella pneumoniae 19645; assay: Radial diffusion bactericidal assay, antibiotic resistant Klebsiella pneumoniae 19645; assay type: cell-based
Protocol: These studies were conducted substantially following the procedures used in Example 2.
In order to test the bactericidal activity of BPI peptides on antibiotic resistant strains of Klebsiella pneumoniae, the multi-resistant clinically isolated strain 19645 was tested as in Example 2 and above. […] This strain was obtained from the Baxter Microscan® library (Sacramento, Calif.). An overnight culture of Klebsiella pneumoniae 19645 and a non-resistant strain (ATCC 29011) were diluted 1:50 into fresh tryptic soy broth and incubated for 3 hours at 37° C. to attain log phase. The overnight cultures were tested as described in Example 2 and part A above.

[3] = Binding of [125I]-RaLPS to peptides pre-bound to HUVEC cells; assay type: cell-based, human; conditions: 1 μg/mL or 3 μg/mL peptide
Protocol: In a third binding assay, a number of BPI functional domain peptides were tested for their ability to bind to radiolabeled LPS following incubation with human endothelial cells (HUVEC). This assay measures the ability to bind LPS once the BPI peptides are bound to HUVEC cells. HUVEC cells were incubated in the presence of various BPI peptides at a concentration of either 1 μg/mL or 3 μg/mL for 3 hr at 4° C. in 500 μL of a solution of D-PBS/BSA. Following this incubation, the cells were washed twice with ice-cold D-PBS/BSA and then incubated for an additional 2.5 hr at 4° C. in 500 μL of a solution of [^125I]-RaLPS (a total of 340,000 cpm at a specific activity of 4.6×10^6 cpm/μg) in D-PBS/BSA. The wells were washed three times with D-PBS/BSA, solubilized in 500 μL of 1M NaOH and the lysates counted using a gamma counter.

Pseudomonas aeruginosa = assay: Radial diffusion bactericidal assay, Pseudomonas aeruginosa; assay type: cell-based; conditions: FIG. 11a; up to about 2000 pmol
E. coli O18:K1:H7 = assay: Radial diffusion bactericidal assay, E. coli O18:K1:H7; assay type: cell-based; conditions: FIG. 11b; up to about 2000 pmol
E. coli O75 = assay: Radial diffusion bactericidal assay, E. coli O75; assay type: cell-based; conditions: FIG. 11d; up to about 2000 pmol
Candida albicans = assay type: cell-based
Salmonella typhurium = assay: Radial diffusion bactericidal assay, Salmonella typhurium; assay type: cell-based; conditions: FIG. 11h
E. coli O4:K12 = assay: Broth bactericidal assay, E. coli O4:K12; assay type: cell-based; conditions: FIG. 11k
E. coli 86a:K61 = assay: Bactericidal assay performed in human serum, E. coli O86a:K61; assay type: cell-based; conditions: FIG. 11l
Text: FIG. 11l is a graph showing the results of BPI functional domain peptide BPI.30 in bactericidal assays performed in human serum;

Substance | heparin neutralization effect (in words) (ATIII/heparin complexes) | bactericidal activity (in words) (E. coli J5 (rough)) | activity against L-form bacteria (in words) [1] | bactericidal activity (in words) [2] | LPS binding while bound to HUVEC cells (in words) [3] | bactericidal activity (in words) (Pseudomonas aeruginosa) | bactericidal activity (in words) (E. coli O18:K1:H7) | bactericidal activity (in words) (E. coli O75) | further results
NVGLKFSISNANIKISGKWKAQKRFLK [BPI.3] | most significant heparin neutralization effects | significant anti-bacterial activity |  |  |  |  |  |  | 
KWKAAARFLKKWKAAARFLK [BPI.48] |  |  | active against these L-form bacteria | active against antibiotic resistant Klebsiella |  |  |  |  | 
KWKAQKRFLKKWKAQKRFLK-NH2 (C-terminus assumed) [BPI.7] | significant heparin neutralization effects | significant bactericidal activity |  | active against antibiotic resistant Klebsiella |  |  |  |  | 
KSKVGWLIQLFHKKKSKVGWLIQLFHKK-NH2 (C-terminus assumed) [BPI.29] |  |  |  |  | retain the capacity to bind LPS while bound to HUVEC cells |  |  |  | 
KSKVGWLIQLFHKK-NH2 (C-terminus assumed) [BPI.13] |  |  | active against these L-form bacteria |  |  | showed bactericidal activity | showed bactericidal activity | showed bactericidal activity | MIC C. alb (Candida albicans): 6.25 µg/mL
KWKAQKRFLKKSKVGWLIQLFHKK-NH2 (C-terminus assumed) [BPI.30] |  |  |  |  | retain the capacity to bind LPS while bound to HUVEC cells | showed bactericidal activity | showed bactericidal activity | showed bactericidal activity | bactericidal activity (in words) (Salmonella typhurium): showed bactericidal activity; bactericidal activity (in words) (E. coli O4:K12): showed bactericidal activity; bactericidal activity (in words) (E. coli 86a:K61): showed bactericidal activity

Reference: patent US20040023884A1, “Biologically active peptides from functional domains of bactericidal/permeability-increasing protein and uses thereof” (priority 1993, published 2004)
